This is an account of results in patent US20250059198A1, “BRM DEGRADING COMPOUNDS AND ASSOCIATED METHODS OF USE” (Arvinas Operations, Inc., priority 2021, published 2025).

Some results are limits rather than exact numbers.

The target of the assay is T1, BRM (Homo sapiens, UniProt P51531).
T1 construct: Western Blot Screen of BRM Degradation in SW1573 Cells; endogenous in cells; host or cells: SW1573 cells
Nature of the assay: BRM degradation (Dmax and DC50) in SW1573 cells, Western blot screen / In-Cell Western screen. Format: cell-based. To be noted: overnight (18-20 hours) treatment; for Dmax: read-out: Dmax (%)** (% degraded). Here is the method: To assess BRM degradation (Dmax and DC50) cells were seeded at 8000/well in 96-well black/clear-bottom plates in 180 μL DMEM growth media (containing 1% pen-strep, 1% HEPES and 10% FBS) per well. Plates were incubated overnight to allow adhesion. The next morning cells were treated by adding 20 μL of 10× target compound concentration (1% DMSO) to appropriate wells and returned to incubator for overnight (18-20 hours). The final DMSO concentration was 0.1%.
For lysing, adherent cells were washed once with 100 μL of DPBS. Cells were lysed in 40 μL of 1×RIPA+HALT protease inhibitor on ice for 10 minutes and frozen until use at −80° C. Thawed lysates were cleaned by filtration in 1.2 µm filter plates, or alternatively, were spun clean at 2300 g at 4° C. for 30 minutes.
For blotting, for each Western sample 30 μL of lysate was added to 10 μL of 4× LDS sample buffer, then denatured at 95° C. for 5 minutes in the thermal cycler and placed on ice. Samples were loaded on 4-15% Tris/Glycine gels and run for 25 minutes at 250 constant volts in 1× Tris/Glycine buffer with 4 μL of ladder and 12 μL of each sample loaded for each blot. Protein was transferred from gels to NC with BioRad Turbo dry-transfer unit with the Turbo/midi default program. All blots were rinsed with ddH2O and blocked for 1 hour at room temperature in 5% BSA in TBST (0.1%) on rocker. Blots were exposed to primary antibody in 5% BSA in TBST (0.1%) overnight at 4° C. on rocker (1:1000 for BRM (Cell Signaling Tech. cat #11966) and 1:2000 for alpha-tubulin (Cell Signaling Tech. cat #3873), a control protein. Blot was washed with TBST (0.1%) three times for 5 minutes on rocker at room temperature. Secondary antibody was added, and blots were incubated on a room temperature rocker for 1 hour with 1:18,000 anti-rabbit-HRP and/or anti-mouse-HRP in 5% BSA in TBST (0.1%). Blots were washed three times in TBST (0.1%) for 5 minutes at room temperature on the rocker. Signal was developed with Femto Maximum Sensitivity substrate for 4 minutes and blots read on ChemiDoc™.
To assess BRM degradation (Dmax and DC50), cells were seeded at 8000/well in 96-well black/clear-bottom plates in 180 μL DMEM growth media (containing 1% pen-strep, 1% HEPES and 10% FBS) per well. Plates were incubated overnight to allow adhesion. The next morning cells were treated by adding 20 μL of 10× compound (1% DMSO) to appropriate wells and returned to incubator for overnight (18-20 hours). The final DMSO concentration was 0.1%.
For processing, the plates were removed from incubator, the media was removed, and immediately 200 μL of cold (4° C.) DPBS was added to all wells. DPBS was then removed, and 50 μL of 4% paraformaldehyde (PFA) in DPBS (4° C.) was added to all wells, and the plates were incubated at room temperature for 20 minutes. PFA was then removed, and 200 μL of TBS-T containing 0.5% Triton X-100 was added to all wells, and the plates were incubated at room temperature for 30 minutes. TBS-T containing 0.5% Triton X-100 was then removed, and 50 μL of Li-Cor blocking solution was added, and the plates were incubated at room temperature for a minimum of one hour. The blocking solution was removed, and 50 μL of Li-Cor blocking solution containing primary antibody cocktail was added (1:1000 for BRM (Cell Signaling Tech. cat #11966) and 1:2000 for alpha-tubulin (Sigma cat #T6074), a control protein. Plates were then placed in cold room until the next day.
The next day plates were washed three times with TBS-T, 200 μL per well. Fifty […] of secondary antibody cocktail in LI-COR blocking solution (anti-rabbit_800 nm and anti-mouse_680 nm) was added to all wells (diluted 1:5000). The plates were incubated at room temperature for at least one hour while protected from light. The plates were washed twice with TBS-T, 200 μL per well.
To read each plate TBS-T was removed, and each plate was inverted tapped on a paper towel. […]

T1 sequence (P51531 whole entry): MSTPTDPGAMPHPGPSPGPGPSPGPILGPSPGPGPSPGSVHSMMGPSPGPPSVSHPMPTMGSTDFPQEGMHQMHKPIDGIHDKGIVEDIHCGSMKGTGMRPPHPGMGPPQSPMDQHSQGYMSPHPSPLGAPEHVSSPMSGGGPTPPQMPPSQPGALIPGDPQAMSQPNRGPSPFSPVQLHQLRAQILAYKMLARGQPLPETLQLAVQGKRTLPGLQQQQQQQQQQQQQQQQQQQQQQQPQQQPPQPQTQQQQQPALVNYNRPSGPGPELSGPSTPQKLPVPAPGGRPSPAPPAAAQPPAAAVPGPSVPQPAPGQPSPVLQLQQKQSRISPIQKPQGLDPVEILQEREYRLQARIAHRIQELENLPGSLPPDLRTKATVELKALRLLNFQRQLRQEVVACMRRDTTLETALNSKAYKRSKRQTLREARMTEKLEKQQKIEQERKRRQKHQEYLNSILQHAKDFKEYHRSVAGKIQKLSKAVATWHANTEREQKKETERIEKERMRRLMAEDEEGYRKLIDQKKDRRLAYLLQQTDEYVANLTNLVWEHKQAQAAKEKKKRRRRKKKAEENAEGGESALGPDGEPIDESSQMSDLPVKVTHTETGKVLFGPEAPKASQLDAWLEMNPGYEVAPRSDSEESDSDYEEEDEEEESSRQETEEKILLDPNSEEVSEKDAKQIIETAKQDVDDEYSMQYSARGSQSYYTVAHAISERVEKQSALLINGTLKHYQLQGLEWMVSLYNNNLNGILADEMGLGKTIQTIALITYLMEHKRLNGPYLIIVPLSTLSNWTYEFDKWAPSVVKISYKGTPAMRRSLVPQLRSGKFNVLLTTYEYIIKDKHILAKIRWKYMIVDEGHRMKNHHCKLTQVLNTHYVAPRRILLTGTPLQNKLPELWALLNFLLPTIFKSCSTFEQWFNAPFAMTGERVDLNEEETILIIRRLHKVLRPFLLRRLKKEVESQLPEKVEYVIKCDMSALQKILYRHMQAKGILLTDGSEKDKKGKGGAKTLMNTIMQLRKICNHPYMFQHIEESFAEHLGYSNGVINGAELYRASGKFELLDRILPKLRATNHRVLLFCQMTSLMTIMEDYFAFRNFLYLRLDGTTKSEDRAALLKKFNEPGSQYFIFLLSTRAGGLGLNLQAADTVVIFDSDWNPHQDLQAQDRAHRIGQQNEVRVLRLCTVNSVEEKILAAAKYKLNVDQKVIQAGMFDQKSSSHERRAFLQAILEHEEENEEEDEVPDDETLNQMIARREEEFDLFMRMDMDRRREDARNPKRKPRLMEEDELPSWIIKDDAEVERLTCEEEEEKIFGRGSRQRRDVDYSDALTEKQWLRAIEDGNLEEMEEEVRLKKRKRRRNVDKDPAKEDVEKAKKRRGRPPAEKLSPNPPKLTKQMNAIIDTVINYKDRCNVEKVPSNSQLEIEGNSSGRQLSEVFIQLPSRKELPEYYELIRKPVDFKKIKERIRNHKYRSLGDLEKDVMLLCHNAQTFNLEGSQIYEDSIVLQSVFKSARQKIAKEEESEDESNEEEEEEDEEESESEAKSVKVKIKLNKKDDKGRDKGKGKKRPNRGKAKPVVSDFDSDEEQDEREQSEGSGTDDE

One may read the DC50 as the midpoint of the concentration-degradation curve. Read a low DC50 as a more potent degrader. What is called Dmax is the greatest extent of degradation seen. Consider `CC(NC(=O)[C@@H]1C[C@@H](O)CN1C(=O)[C@@H](c1cc(N2CCC(CN3CCC(O[C@H]4C[C@H](Oc5cc(N6C7CCC6CN(c6cc(-c8ccccc8O)nnc6N)C7)ccn5)C4)CC3)CC2)no1)C(C)C)c1ccc(C#N)c(F)c1` (stereo partly drawn) [Compound 4, (2S,4R)-N-[1-(4-cyano-3-fluorophenyl)ethyl]-4-hydroxy-1-[(2R)-3-methyl-2-{3-[4-({4-[(1r,3r)-3-[(4-{3-[3-amino-6-(2-hydroxyphenyl)pyridazin-4-yl]-3,8-diazabicyclo[3.2.1]octan-8-yl}pyridin-2-yl)oxy]cyclobutoxy]piperidin-1-yl}methyl)piperidin-1-yl]-1,2-oxazol-5-yl}butanoyl]pyrrolidine-2-carboxamide], for which the 50% degradation concentration (DC50) was < 2.5 nM and the Dmax is > 75%. With `Cc1ncsc1-c1ccc([C@H](C)NC(=O)[C@@H]2C[C@@H](O)CN2C(=O)[C@H](c2cc(N3CCC(CN4CCC(O[C@H]5C[C@H](Oc6cc(N7C8CCC7CN(c7cc(-c9ccccc9O)nnc7N)C8)ccn6)C5)CC4)CC3)no2)C(C)C)c(N)c1` [Compound 5, (2S,4R)-N-[(1S)-1-[2-amino-4-(4-methyl-1,3-thiazol-5-yl)phenyl]ethyl]-4-hydroxy-1-[(2S)-3-methyl-2-{3-[4-({4-[(1r,3r)-3-[(4-{3-[3-amino-6-(2-hydroxyphenyl)pyridazin-4-yl]-3,8-diazabicyclo[3.2.1]octan-8-yl}pyridin-2-yl)oxy]cyclobutoxy]piperidin-1-yl}methyl)piperidin-1-yl]-1,2-oxazol-5-yl}butanoyl]pyrrolidine-2-carboxamide], the 50% degradation concentration (DC50) was ≥ 30 nM. As to `Cc1ncsc1-c1ccc([C@H](C)NC(=O)[C@@H]2C[C@@H](O)CN2C(=O)[C@@H](c2cc(N3CCC(CN4CCC(O[C@H]5C[C@@H](N6CCC([C@H](C)n7cc(-c8cc(-c9ccccc9O)nnc8N)cn7)CC6)C5)CC4)CC3)no2)C(C)C)cc1` [Compound 8, (2S,4R)-4-hydroxy-N-[(1S)-1-[4-(4-methyl-1,3-thiazol-5-yl)phenyl]ethyl]-1-[(2R)-3-methyl-2-{3-[4-({4-[(1s,3s)-3-{4-[(1S)-1-{4-[3-amino-6-(2-hydroxyphenyl)pyridazin-4-yl]-1H-pyrazol-1-yl}ethyl]piperidin-1-yl}cyclobutoxy]piperidin-1-yl}methyl)piperidin-1-yl]-1,2-oxazol-5-yl}butanoyl]pyrrolidine-2-carboxamide], the DC50 is < 2.5 nM and the Dmax is > 75%. For `Cc1ncsc1-c1ccc([C@H](C)NC(=O)[C@@H]2C[C@@H](O)CN2C(=O)[C@@H](c2cc(N3CCC(CN4CCC(O[C@H]5C[C@H](N6CCC([C@H](C)n7cc(-c8cc(-c9ccccc9O)nnc8N)cn7)CC6)C5)CC4)CC3)no2)C(C)C)cc1` [Compound 9, (2S,4R)-4-hydroxy-N-[(1S)-1-[4-(4-methyl-1,3-thiazol-5-yl)phenyl]ethyl]-1-[(2R)-3-methyl-2-{3-[4-({4-[(1r,3r)-3-{4-[(1S)-1-{4-[3-amino-6-(2-hydroxyphenyl)pyridazin-4-yl]-1H-pyrazol-1-yl}ethyl]piperidin-1-yl}cyclobutoxy]piperidin-1-yl}methyl)piperidin-1-yl]-,2-oxazol-5-yl}butanoyl]pyrrolidine-2-carboxamide], the half-maximal degradation concentration (DC50) was < 2.5 nM and the Dmax was > 75%. `Cc1ncsc1-c1ccc([C@H](C)NC(=O)[C@@H]2C[C@@H](O)CN2C(=O)[C@@H](c2cc(N3CCC(CN4CCC(N[C@H]5C[C@H](Oc6cc(N7C8CCC7CN(c7cc(-c9ccccc9O)nnc7N)C8)ccn6)C5)CC4)CC3)no2)C(C)C)cc1` [Compound 10, (2S,4R)-4-hydroxy-N-[(1S)-1-[4-(4-methyl-1,3-thiazol-5-yl)phenyl]ethyl]-1-[(2R)-3-methyl-2-(3-{4-[(4-{[(1rs,3rs)-3-[(4-{3-[3-amino-6-(2-hydroxyphenyl)pyridazin-4-yl]-3,8-diazabicyclo[3.2.1]octan-8-yl}pyridin-2-yl)oxy]cyclobutyl]amino}piperidin-1-yl)methyl]piperidin-1-yl}-1,2-oxazol-5-yl)butanoyl]pyrrolidine-2-carboxamide]: the DC50 is < 2.5 nM and the maximal degradation (Dmax) was > 75%.

Consider `Cc1ncsc1-c1ccc([C@H](C)NC(=O)[C@@H]2C[C@@H](O)CN2C(=O)[C@@H](c2cc(N3CCC(CN4CCC(O[C@H]5C[C@H](N6CCC(O)(CN7C8CCC7CN(c7cc(-c9ccccc9O)nnc7N)C8)CC6)C5)CC4)CC3)no2)C(C)C)cc1` [Compound 11, (2S,4R)-4-hydroxy-N-[(1S)-1-[4-(4-methyl-1,3-thiazol-5-yl)phenyl]ethyl]-1-[(2R)-3-methyl-2-{3-[4-({4-[(1r,3r)-3-[4-({3-[3-amino-6-(2-hydroxyphenyl)pyridazin-4-yl]-3,8-diazabicyclo[3.2.1]octan-8-yl}methyl)-4-hydroxypiperidin-1-yl]cyclobutoxy]piperidin-1-yl}methyl)piperidin-1-yl]-1,2-oxazol-5-yl}butanoyl]pyrrolidine-2-carboxamide], for which the DC50 is < 2.5 nM and the Dmax was > 75%.

In the case of `Cc1ncsc1-c1ccc([C@H](C)NC(=O)[C@@H]2C[C@@H](O)CN2C(=O)[C@H](c2cc(N3CCC(n4cnc(CN5CCC(O[C@H]6C[C@H](Oc7cc(N8C9CCC8CN(c8cc(-c%10ccccc%10O)nnc8N)C9)ccn7)C6)CC5)c4)CC3)no2)C(C)C)cc1` [Compound 12, (2S,4R)-4-hydroxy-N-[(1S)-1-[4-(4-methyl-1,3-thiazol-5-yl)phenyl]ethyl]-1-[(2S)-3-methyl-2-(3-{4-[4-({4-[(1r,3r)-3-[(4-{3-[3-amino-6-(2-hydroxyphenyl)pyridazin-4-yl]-3,8-diazabicyclo[3.2.1]octan-8-yl}pyridin-2-yl)oxy]cyclobutoxy]piperidin-1-yl}methyl)-1H-imidazol-1-yl]piperidin-1-yl}-1,2-oxazol-5-yl)butanoyl]pyrrolidine-2-carboxamide], the half-maximal degradation concentration (DC50) was ≥ 30 nM. Consider `Cc1ncsc1-c1ccc([C@H](C)NC(=O)[C@@H]2C[C@@H](O)CN2C(=O)[C@H](c2cc(N3CCC(C4(N5CCC(O[C@H]6C[C@H](Oc7cc(N8C9CCC8CN(c8cc(-c%10ccccc%10O)nnc8N)C9)ccn7)C6)CC5)CC4)CC3)no2)C(C)C)cc1` [Compound 13, (2S,4R)-4-hydroxy-N-[(3S)-3-[4-(4-methyl-3,3-thiazol-5-yl)phenyl]ethyl]-3-[(2S)-3-methyl-2-{3-[4-(3-{4-[(1r,3r)-3-[(4-{3-[3-amino-6-(2-hydroxyphenyl)pyridazin-4-yl]-3,8-diazabicyclo[3.2.3]octan-8-yl}pyridin-2-yl)oxy]cyclobutoxy]piperidin-1-yl}cyclopropyl)piperidin-1-yl]-1,2-oxazol-5-yl}butanoyl]pyrrolidine-2-carboxamide], for which the 50% degradation concentration (DC50) is ≥ 30 nM. For `CC(C)[C@@H](C(=O)N1C[C@H](O)C[C@H]1C(=O)N[C@@H](C)c1ccc(C#N)cc1)c1cc(N2CCC(CN3CCC(O[C@H]4C[C@H](Oc5cc(N6C7CCC6CN(c6cc(-c8ccccc8O)nnc6N)CC7)ccn5)C4)CC3)CC2)no1` (stereo partly drawn) [Compound 14, (2S,4R)-N-[(1S)-1-(4-cyanophenyl)ethyl]-4-hydroxy-1-[(2R)-3-methyl-2-{3-[4-({4-[(1r,3r)-3-[(4-{3-[3-amino-6-(2-hydroxyphenyl)pyridazin-4-yl]-3,9-diazabicyclo[4.2.1]nonan-9-yl}pyridin-2-yl)oxy]cyclobutoxy]piperidin-1-yl}methyl)piperidin-1-yl]-1,2-oxazol-5-yl}butanoyl]pyrrolidine-2-carboxamide], the 50% degradation concentration (DC50) was < 2.5 nM and the Dmax was > 75%.
